According to patent publication US9023847B2, “Azaheterocyclic compounds” (Merck Patent GmbH, priority 2009, dated 2015):

target: T1, P70S6K (T412E mutant, Millipore) (Homo sapiens, UniProt P23443, T412E); assay: p70S6K enzyme assay; assay type: biochemical; conditions: class symbol; 3 nM P70S6K, 24 μM ATP; read-out: IC50 (p70S6K)
T1 construct: purchased Millipore
Method in brief: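 T412E-mutant P70S6K (3 nM) with 24 μM ATP and 1 μM FITC-AHA-AKRRRLSSLRA-OH S6-derived peptide in 100 mM Hepes pH 7.5, 5 mM MgCl2, 1 mM DTT, 0.015% Brij; 90 min at 25° C, EDTA stop. Phosphorylated product and substrate peptide separated and quantified by microfluidic capillary electrophoresis (Caliper LabChip 3000).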

T1 sequence (P23443 whole entry T412E): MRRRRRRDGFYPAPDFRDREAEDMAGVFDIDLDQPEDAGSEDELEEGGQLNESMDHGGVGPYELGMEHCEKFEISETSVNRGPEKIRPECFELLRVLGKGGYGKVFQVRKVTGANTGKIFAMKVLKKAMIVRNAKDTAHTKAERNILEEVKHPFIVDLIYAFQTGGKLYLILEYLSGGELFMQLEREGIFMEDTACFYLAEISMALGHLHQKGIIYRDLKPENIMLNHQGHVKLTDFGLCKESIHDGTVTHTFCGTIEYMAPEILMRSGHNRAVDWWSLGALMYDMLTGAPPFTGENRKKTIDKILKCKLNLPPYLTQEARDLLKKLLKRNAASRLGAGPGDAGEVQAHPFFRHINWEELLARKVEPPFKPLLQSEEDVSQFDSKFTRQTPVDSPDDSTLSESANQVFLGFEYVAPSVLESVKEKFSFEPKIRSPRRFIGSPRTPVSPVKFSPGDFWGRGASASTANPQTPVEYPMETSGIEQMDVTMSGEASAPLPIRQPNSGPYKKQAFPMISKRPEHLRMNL

`NCCCNC(=O)c1sccc1Nc1ccnc2[nH]ccc12` [Example 67, 3-(1H-Pyrrolo[2,3-b]pyridin-4-ylamino)-thiophene-2-carboxylic acid (3-amino-propyl)-amide] and `O=C(NCCNCc1ccncc1)c1sccc1Nc1ccnc2[nH]ccc12` [Example 74, 3-(1H-Pyrrolo[2,3-b]pyridin-4-ylamino)-thiophene-2-carboxylic acid {2-[(pyridin-4-ylmethyl)-amino]-ethyl}-amide] fall in the same range of IC50: 100 to 1000 nM for the first, 100 to 1000 nM for the second.

First: O=C(NCCOCc1ccccc1)c1sccc1Nc1ccnc2[nH]ccc12 [Example 68, 3-(1H-Pyrrolo[2,3-b]pyridin-4-ylamino)-thiophene-2-carboxylic acid (2-benzyloxy-ethyl)-amide]
Second: O=C(NCCS(=O)(=O)Cc1ccccc1)c1sccc1Nc1ccnc2[nH]ccc12 [Example 69, 3-(1H-Pyrrolo[2,3-b]pyridin-4-ylamino)-thiophene-2-carboxylic acid (2-phenylmethanesulfonyl-ethyl)-amide]
The IC50 of the first is lower: < 100 nM for the first, 100 to 1000 nM for the second. The first is the more potent here.

Compared with `O=C(NCCNC(=O)c1sccc1Nc1ccnc2[nH]ccc12)c1ccccc1` [Example 70, 3-(1H-Pyrrolo[2,3-b]pyridin-4-ylamino)-thiophene-2-carboxylic acid (2-benzoylamino-ethyl)-amide], `O=C(NCCNS(=O)(=O)c1ccccc1)c1sccc1Nc1ccnc2[nH]ccc12` [Example 71, 3-(1H-Pyrrolo[2,3-b]pyridin-4-ylamino)-thiophene-2-carboxylic acid (2-benzenesulfonylamino-ethyl)-amide] is higher in IC50: < 100 nM for the first, 100 to 1000 nM for the second. The first is the more potent here.

First: O=C(NCCNCc1ccccc1)c1ccsc1Nc1ccnc2[nH]ccc12 [Example 72, 2-(1H-Pyrrolo[2,3-b]pyridin-4-ylamino)-thiophene-3-carboxylic acid (2-benzylamino-ethyl)-amide]
Second: Cc1cc(Nc2ccnc3[nH]ccc23)c(C(=O)NCCNCc2ccccc2)s1 [Example 79, 5-Methyl-3-(1H-pyrrolo[2,3-b]pyridin-4-ylamino)-thiophene-2-carboxylic acid (2-benzylamino-ethyl)-amide]
The IC50 of the first is lower: < 100 nM for the first, 1000 to 10000 nM for the second. The first is the more potent here.

`O=C(CNC(=O)c1sccc1Nc1ccnc2[nH]ccc12)NCc1ccccc1` [Example 73, 3-(1H-Pyrrolo[2,3-b]pyridin-4-ylamino)-thiophene-2-carboxylic acid (benzylcarbamoyl-methyl)-amide] and `O=C(NC(CO)C(=O)NCc1ccccc1)c1sccc1Nc1ccnc2[nH]ccc12` (centres unmarked) [Example 88, 3-(1H-Pyrrolo[2,3-b]pyridin-4-ylamino)-thiophene-2-carboxylic acid (1-benzylcarbamoyl-2-hydroxy-ethyl)-amide] fall in the same range of IC50: 100 to 1000 nM for the first, 100 to 1000 nM for the second.

`O=C(N[C@H](CO)c1ccccc1)c1ccsc1Nc1ccnc2[nH]ccc12` [Example 75, 2-(1H-Pyrrolo[2,3-b]pyridin-4-ylamino)-thiophene-3-carboxylic acid ((S)-2-hydroxy-1-phenyl-ethyl)-amide] and `NCC(NC(=O)c1sccc1Nc1ccnc2[nH]ccc12)c1ccccc1` (centres unmarked) [Example 77, 3-(1H-Pyrrolo[2,3-b]pyridin-4-ylamino)-thiophene-2-carboxylic acid (2-amino-1-phenyl-ethyl)-amide] cannot be ordered by IC50: < 100 nM for the first, < 100 nM for the second.

`[N-]=[N+]=NCC(NC(=O)c1sccc1Nc1ccnc2[nH]ccc12)c1ccccc1` (centres unmarked) [Example 76, 3-(1H-Pyrrolo[2,3-b]pyridin-4-ylamino)-thiophene-2-carboxylic acid (2-azido-1-phenyl-ethyl)-amide] and `NC(CNC(=O)c1sccc1Nc1ccnc2[nH]ccc12)c1ccccc1` (centres unmarked) [Example 78, 3-(1H-Pyrrolo[2,3-b]pyridin-4-ylamino)-thiophene-2-carboxylic acid (2-amino-2-phenyl-ethyl)-amide] cannot be ordered by IC50: < 100 nM for the first, < 100 nM for the second.

First: Cc1cc(Nc2ccnc3[nH]ccc23)c(C(=O)N[C@H](CO)c2ccccc2)s1 [Example 80, 5-Methyl-3-(1H-pyrrolo[2,3-b]pyridin-4-ylamino)-thiophene-2-carboxylicacid ((S)-2-hydroxy-1-phenyl-ethyl)-amide]
Second: O=C(N[C@@H](CO)[C@@H](O)c1ccccc1)c1sccc1Nc1ccnc2[nH]ccc12 [Example 84, 3-(1H-Pyrrolo[2,3-b]pyridin-4-ylamino)-thiophene-2-carboxylic acid ((1S,2S)-2-hydroxy-1-hydroxymethyl-2-phenyl-ethyl)-amide]
The IC50 of the first is lower: 100 to 1000 nM for the first, 1000 to 10000 nM for the second.

Compared with `O=C(N[C@@H](CO)Cc1ccccc1)c1sccc1Nc1ccnc2[nH]ccc12` [Example 81, 3-(1H-Pyrrolo[2,3-b]pyridin-4-ylamino)-thiophene-2-carboxylic acid ((R)-1-benzyl-2-hydroxy-ethyl)-amide], `O=C(N[C@H](CO)Cc1ccccc1)c1sccc1Nc1ccnc2[nH]ccc12` [Example 86, 3-(1H-Pyrrolo[2,3-b]pyridin-4-ylamino)-thiophene-2-carboxylic acid ((S)-1-benzyl-2-hydroxy-ethyl)-amide] is lower in IC50: 1000 to 10000 nM for the first, < 100 nM for the second.

`COC(=O)C(CO)NC(=O)c1sccc1Nc1ccnc2[nH]ccc12` (centres unmarked) [Example 85, 3-Hydroxy-2-{[3-(1H-pyrrolo[2,3-b]pyridin-4-ylamino)-thiophene-2-carbonyl]-amino}-propionic acid methyl ester] and `CC(C)[C@@H](CO)NC(=O)c1sccc1Nc1ccnc2[nH]ccc12` [Example 96, 3-(1H-Pyrrolo[2,3-b]pyridin-4-ylamino)-thiophene-2-carboxylic acid ((S)-1-hydroxymethyl-2-methyl-propyl)-amide] fall in the same range of IC50: 100 to 1000 nM for the first, 100 to 1000 nM for the second.

`Nc1cccc(CNC(=O)c2sccc2Nc2ccnc3[nH]ccc23)c1` [Example 87, 3-(1H-Pyrrolo[2,3-b]pyridin-4-ylamino)-thiophene-2-carboxylic acid 3-amino-benzylamide] and `COc1cccc(CNC(=O)c2sccc2Nc2ccnc3[nH]ccc23)c1` [Example 94, 3-(1H-Pyrrolo[2,3-b]pyridin-4-ylamino)-thiophene-2-carboxylic acid 3-methoxybenzylamide] cannot be ordered by IC50: < 100 nM for the first, < 100 nM for the second.

Compared with `O=C(NC(CO)C(=O)NCc1ccc(Cl)c(C(F)(F)F)c1)c1sccc1Nc1ccnc2[nH]ccc12` (centres unmarked) [Example 89, 3-(1H-Pyrrolo[2,3-b]pyridin-4-ylamino)-thiophene-2-carboxylic acid [1-(4-chloro-3-trifluoromethyl-benzylcarbamoyl)-2-hydroxy-ethyl]-amide], `O=C(NCc1ccc(Cl)c(C(F)(F)F)c1)c1sccc1Nc1ccnc2[nH]ccc12` [Example 98, 3-(1H-Pyrrolo[2,3-b]pyridin-4-ylamino)-thiophene-2-carboxylic acid 4-chloro-3-trifluoromethyl-benzylamide] is lower in IC50: 100 to 1000 nM for the first, < 100 nM for the second. The second is the more potent here.

First: O=C(NCCNCc1ccc(Cl)c(C(F)(F)F)c1)c1sccc1Nc1ccnc2[nH]ccc12 [Example 90, 3-(1H-Pyrrolo[2,3-b]pyridin-4-ylamino)-thiophene-2-carboxylic acid [2-(4-chloro-3-trifluoromethyl-benzylamino)-ethyl]-amide]
Second: COc1cc(CNC(=O)c2sccc2Nc2ccnc3[nH]ccc23)cc(OC)c1 [Example 95, 3-(1H-Pyrrolo[2,3-b]pyridin-4-ylamino)-thiophene-2-carboxylic acid 3,5-dimethoxy-benzylamide]
The IC50 of the first is lower: < 100 nM for the first, 100 to 1000 nM for the second. The first is the more potent here.

`CC(C)(C)OC(=O)N1CCCC(NC(=O)c2sccc2Nc2ccnc3[nH]ccc23)C1` (centres unmarked) [Example 91, 3-{[3-(1H-Pyrrolo[2,3-b]pyridin-4-ylamino)-thiophene-2-carbonyl]-amino}-piperidine-1-carboxylic acid tert-butyl ester] and `CC(C)(C)OC(=O)N1CCC[C@@H]1CNC(=O)c1sccc1Nc1ccnc2[nH]ccc12` [Example 92, (R)-2-({[3-(1H-Pyrrolo[2,3-b]pyridin-4-ylamino)-thiophene-2-carbonyl]-amino}methyl)pyrrolidine-1-carboxylic acid tert-butyl ester] fall in the same range of IC50: 100 to 1000 nM for the first, 100 to 1000 nM for the second.

Compared with `O=C(NC[C@H]1CCCN1)c1sccc1Nc1ccnc2[nH]ccc12` [Example 93, 3-(1H-Pyrrolo[2,3-b]pyridin-4-ylamino)-thiophene-2-carboxylic acid ((R)-1-pyrrolidin-2-ylmethyl)-amide], `O=C(NCC(O)c1ccccc1)c1sccc1Nc1ccnc2[nH]ccc12` (centres unmarked) [Example 99, 3-(1H-Pyrrolo[2,3-b]pyridin-4-ylamino)-thiophene-2-carboxylic acid (2-hydroxy-2-phenyl-ethyl)-amide] is lower in IC50: 100 to 1000 nM for the first, < 100 nM for the second. The second is the more potent here.

`CC(C)C[C@@H](CO)NC(=O)c1sccc1Nc1ccnc2[nH]ccc12` [Example 97, 3-(1H-Pyrrolo[2,3-b]pyridin-4-ylamino)-thiophene-2-carboxylic acid ((S)-1-hydroxymethyl-3-methyl-butyl)-amide] and `O=C(NCc1cn(Cc2ccccc2)nn1)c1sccc1Nc1ccnc2[nH]ccc12` [Example 101, 3-(1H-Pyrrolo[2,3-b]pyridin-4-ylamino)-thiophene-2-carboxylic acid (1-benzyl-1H-[1,2,3]triazol-4-ylmethyl)-amide] fall in the same range of IC50: 100 to 1000 nM for the first, 100 to 1000 nM for the second.

In the case of `O=C(Nc1cccc(CNC(=O)c2sccc2Nc2ccnc3[nH]ccc23)c1)c1ccc(F)cc1` [Example 100, 3-(1H-Pyrrolo[2,3-b]pyridin-4-ylamino)-thiophene-2-carboxylic acid 3-(4-fluoro-benzoylamino)-benzylamide], the IC50 is reported as < 100 nM.

same assay, conditions: numeric bound printed under the example; read-out: IC50 (p70S6K)

`O=C(NCCNCc1ccccc1)c1sc2ccccc2c1Nc1ccnc2[nH]ccc12` [Example 82, 3-(1H-Pyrrolo[2,3-b]pyridin-4-ylamino)-benzo[b]thiophene-2-carboxylic acid (2-benzylamino-ethyl)-amide] and `O=C(N[C@H](CO)c1ccccc1)c1sc2ccccc2c1Nc1ccnc2[nH]ccc12` [Example 83, 3-(1H-Pyrrolo[2,3-b]pyridin-4-ylamino)-benzo[b]thiophene-2-carboxylic acid ((S)-2-hydroxy-1-phenyl-ethyl)-amide] cannot be ordered by IC50: > 10000 nM for the first, > 10000 nM for the second.
